From publication PMC4452589, “An evaluation of the brain distribution of [^11C]GSK1034702, a muscarinic-1 (M1) positive allosteric modulator in the living human brain using positron emission tomography” (EJNMMI Research, 2014)
Like-named read-outs stand apart in the source and are kept apart here.

Legend:
human m2-5AChR receptors = system: human m2-5AChR receptors; set-up: method as in earlier work; settings: versus m1AChR; cited from earlier work
[1] = set-up: method as in GlaxoSmithKline (GSK) data on file; settings: mouse; ref GlaxoSmithKline (GSK) data on file; cited from earlier work
human recombinant m1AChR = system: human recombinant m1AChR; set-up: method as in earlier work; settings: cited from earlier work
[2] = brain tissue binding by equilibrium dialysis, dog; assay type: in vitro ADME; settings: equilibrium dialysis 5 h
Description: (§1) The in vitro brain and plasma protein binding of GSK1034702 across a range of species was determined using equilibrium dialysis as described previously.

[3] = brain tissue binding by equilibrium dialysis, rat; assay type: in vitro ADME; settings: equilibrium dialysis 5 h; for Brain tissue binding: 1 μg/mL, mean ± SD, n = 6; for fraction unbound at 5 h, 1 μg/mL: brain tissue, read-out: f ND (brain-free fraction)
Description: as §1

[4] = set-up: method as in GlaxoSmithKline (GSK) data on file; settings: rat; ref GlaxoSmithKline (GSK) data on file; cited from earlier work
[5] = plasma protein binding by equilibrium dialysis, human; assay type: in vitro ADME; settings: equilibrium dialysis 5 h
Description: as §1

[6] = plasma free fraction by ultrafiltration, human arterial plasma; assay type: in vitro ADME
Description: (§2) Arterial blood radioactivity was measured continuously for the first 15 min after [^11C]GSK1034702 injection, using a continuous sampling system (ABSS Allogg, Mariefred, Sweden). In addition, 12 serial discrete blood samples were obtained (at 5, 10, 15, 20, 25, 30, 40, 50, 60, 70, 80 and 90 min post injection), to determine whole blood and plasma activity. Seven samples (at 5, 10, 20, 30, 50, 70 and 90 min) were further processed by HPLC to measure the fraction of plasma activity representing unmetabolised GSK1034702. For all human studies, the non-protein-bound fraction of [^11C]GSK1034702 in arterial plasma (fP) was assessed by ultrafiltration for the blood sample taken at the beginning of the scan.

[7] = set-up: method as in GlaxoSmithKline (GSK) data on file; settings: marmoset; ratio printed as x:1; ref GlaxoSmithKline (GSK) data on file; cited from earlier work
[8] = safety and tolerability of single 5-mg oral dose in healthy males; assay type: in vivo, human; settings: single oral dose of 5 mg
Description: An open-label PET study (GSK study number 110771) was conducted to assess the transport of [^11C]GSK1034702 across the BBB and its distribution in the living human brain. Four healthy males aged between 35 and 55 years old, with body mass index (BMI) between 19.0 and 29.0 kg/m^2, and the absence of past or present neurological, medical or psychiatric illnesses and concomitant medications were enrolled. Clinical status was assessed by history, physical examination, routine blood tests, urine toxicology and electrocardiogram. All subjects provided written informed consent. The study was approved by the Edinburgh Independent Ethics Committee for Medical Research and permission to administer radioisotopes was obtained from the Administration of Radioactive Substances Advisory Committee of the UK. Subjects were recruited by and monitored by the Hammersmith Medicines Research (HMR) clinic. All scanning procedures were performed at the GlaxoSmithKline Clinical Imaging Center, Hammersmith Hospital, London.
Each subject underwent a single study day, during which PET imaging was performed. T1-weighted structural MRI scan was performed for all subjects to provide neuroanatomical information. A tracer dose of [^11C]GSK1034702 (mass <50 μg) was administered as an IV bolus immediately before each PET scan. During the scanning day, each subject received a baseline [^11C]GSK1034702 scan, followed by a single 5-mg oral dose (p.o.) of […] and a subsequent [^11C]GSK1034702 scan approximately 4 h post-dose. Subjects returned to the clinic for a follow-up visit 7 to 14 days following the oral dose of GSK1034702.

P-glycoprotein (PGP) = system: P-glycoprotein (PGP); set-up: method as in GlaxoSmithKline (GSK) data on file; settings: MDCK cell line expressing human MDR1; ratio printed as x:1; ref GlaxoSmithKline (GSK) data on file; cited from earlier work
[9] = plasma protein binding by equilibrium dialysis, monkey; assay type: in vitro ADME; settings: equilibrium dialysis 5 h
Description: as §1

[10] = plasma protein binding by equilibrium dialysis, mouse; assay type: in vitro ADME; settings: equilibrium dialysis 5 h
Description: as §1

[11] = plasma concentration after single 5-mg oral dose in humans; assay type: in vivo; settings: human, read-out: GSK1034702 plasma concentration at start of post-dose PET scan
Description: Serial venous blood samples were obtained at 0, 1, 2, 3, 4 and 5.5 h after the administration of a single oral dose of 5 mg of GSK1034702, to estimate the time course of GSK1034702 plasma concentration. Plasma samples were analysed using a validated analytical method.

[12] = parent fraction in arterial plasma by HPLC during PET scan; assay type: in vivo; settings: human, baseline and post-dose sessions, 90 min
Description: as §2

[13] = mean ± SD, n = 6, read-out: Plasma protein binding (converted)
[14] = read-out: f P (plasma-free fraction)

In the case of `Cc1cc(F)c2[nH]c(=O)n(C3CCN(C4CCOCC4)CC3)c2c1` [GSK1034702], the “selectivity over human m2-5AChR receptors” value (human m2-5AChR receptors) is given as 100 fold, the brain/blood ratio [1] is given as 0.4 and the pEC50 (human recombinant m1AChR; allosteric agonist at human recombinant m1AChR) is given as 8.1 ± 0.1. The “intrinsic activity (IA)” value (human recombinant m1AChR; human recombinant m1AChR) was 0.78 ± 0.02, the fraction unbound at 5 h, 1 μg/mL ([2]; brain tissue, read-out: f ND (brain-free fraction)) was 0.18 and the Brain tissue binding ([2]; 1 μg/mL, mean ± SD, n = 6) was 81.8 (±1.8) %. For the same compound, the Brain tissue binding ([3]; Rat (CD)) was 87.7 (±0.5) %, the Brain tissue binding ([3]; Rat (LH)) was 84.9 (±1.0) % and the fraction unbound at 5 h, 1 μg/mL ([3]; Rat (CD)) was 0.12. The fraction unbound at 5 h, 1 μg/mL ([3]; Rat (LH)) was 0.15, the brain/blood ratio [4] was 0.6 and the fraction unbound at 5 h, 1 μg/mL [5, 13] was 0.442. For the same compound, the fraction unbound at 5 h, 1 μg/mL [5, 14] was 0.44, the “f P Baseline” value ([6]; Average of four subjects) was 0.45 and the “f P Post-dose” value ([6]; Average, after 5 mg oral) was 0.44. For the same compound, the “f P Baseline” value ([6]; Subject 1) was 0.42, the “f P Baseline” value ([6]; Subject 2) was 0.43 and the “f P Post-dose” value ([6]; Subject 2, after 5 mg oral) was 0.41. For the same compound, the “f P Baseline” value ([6]; Subject 3) was 0.43, the “f P Post-dose” value ([6]; Subject 3, after 5 mg oral) was 0.43 and the “f P Baseline” value ([6]; Subject 4) was 0.51. The “f P Post-dose” value ([6]; Subject 4, after 5 mg oral) was 0.48, the brain/blood ratio [7] was 2.0 and the serious adverse events [8] was “No serious adverse events”. The tolerability ([8]; healthy male subjects) was “well tolerated”, the adverse events ([8]; one subject, salivary hypersecretion and dysgeusia, considered drug-related) was “two mild and transient adverse events” and the efflux ratio (P-glycoprotein (PGP)) was 2.6. It also gave a fraction unbound at 5 h, 1 μg/mL [9, 13] of 0.583, a fraction unbound at 5 h, 1 μg/mL [9, 14] of 0.58 and a fraction unbound at 5 h, 1 μg/mL [10, 13] of 0.518. The fraction unbound at 5 h, 1 μg/mL [10, 14] was 0.52, the concentration at 3.2 h ([11]; Subject 2, 3.2 hours post dose) was 7.9 ng/mL and the concentration at 4.4 h ([11]; Subject 3, 4.4 hours post dose) was 13.2 ng/mL. The concentration at 3.8 h ([11]; Subject 4, 3.8 hours post dose) was 10.4 ng/mL.

With `[11CH3]c1cc(F)c2[nH]c(=O)n(C3CCN(C4CCOCC4)CC3)c2c1` [[^11C]GSK1034702] the “metabolism over the time course of the PET scan (parent fraction in plasma)” value [12] was “minimal metabolism”.
